The first assay relates to Haemonchus contortus. Description: Haemonchus contortus larvacidal assay: NemaTOX H. contortus dose response (larval development, eggs to L3). Particulars: Haemonchus contortus, 144 h; Table 3; concentration required to inhibit development in 99% of the nematode larvae; eggs on agar to L3 stage (6 days); two-fold dilutions, 0.024 to 50 μg/ml; read-out: LD99. Type of assay: cell-based. The procedure: Haemonchus Contortus Larvacidal Assay: NemaTOX H.contortus Dose Response (00/0510)
Effect on larval development is determined in the assay described by Gill et al. (International Journal of Parasitology, 1995, 25, 463-470). Briefly, in this assay nematode eggs were applied to the surface of an agar matrix containing the test compound and then allowed to develop through to the L3, infective stage (6 days)
The wells for each dilution of every compound (from highest to lowest concentration) were inspected to determine the well number corresponding to the lowest concentration at which development was inhibited in 99% of the nematode larvae present. As the well numbers correspond to a two-fold serial dilution of each compound, a titre (dilution factor) is generated as 2^n-1, where n is the well number. By dividing the highest concentration tested by the titre an LD99 value can be obtained, representing the concentration required to inhibit development in 99% of the nematode larvae present.
The compounds supplied as solid and viscous liquids were dissolved in DMSO. Twelve serial 1/2 dilutions in DMSO solution were prepared from the stock solution, each of which was then diluted 1/5 with water. Aliquots (10 μl) of each dilution were transferred to the bioassay plates to give a final concentration range of 0.024 to 50 μg/ml.
In Tables 1, 2 and 3 the Haemonchus contortus LD99 values for compounds in accordance with the present invention are listed, measured in micrograms/mL.
Regarding `CCCOc1ccc2nc3c(n2n1)CCc1cc(OC)ccc1-3` [Compound 121, 3-Methoxy-8-propoxy-5,6-dihydro-6b,7,11-triaza-benzo[a]fluorene], the IC99 is 0.203 µg/mL.

With `CCCOc1ccc2nc3c(n2n1)Cc1ccccc1-3` [Compound 123, 3-Propoxy-5H-4,4a, 10-triaza-indeno[2,1-a]indene], the IC99 was 0.469 µg/mL.

The same assay, now with this note: Table 2; concentration required to inhibit development in 99% of the nematode larvae; eggs on agar to L3 stage (6 days); two-fold dilutions, 0.024 to 50 μg/ml.
In the case of `CCCOc1ccc2nc(-c3ccc(OCCOC)cc3)c(Br)n2n1` [Compound 81], the LD99 was 0.0137 micrograms/mL.

In the case of `CCCOc1ccc2nc(-c3ccc(OCCOC)c(Br)c3)c(C)n2n1` [Compound 83], the LD99 is 0.375 micrograms/mL.

With `CCCOc1ccc2nc(-c3ccc(OCCOC)cc3)c(C)n2n1` [Compound 84], the LD99 was determined as 0.109 micrograms/mL.

`COCCOc1ccc(-c2nc3ccc(-c4ccccc4)nn3c2C)cc1` [Compound 85] had an LD99 of 1.88 micrograms/mL.

Compound `COCCOc1ccc(-c2nc3ccc(Cl)nn3c2C)cc1Br` [Compound 86] displayed an LD99 of 3 micrograms/mL.

Turning to `COCCOc1ccc(-c2nc3ccc(Cl)nn3c2C)cc1` [Compound 87], the LD99 came out at 0.156 micrograms/mL.

As for `CCCSc1ccc2nc(-c3ccc(OCCOC)c(OC)c3)c(Br)n2n1` [Compound 89], the LD99 is listed as 0.75 micrograms/mL.

On to `COCCOc1ccc(-c2cn3nc(Br)ccc3n2)cc1` [Compound 90], for which the LD99 turned out to be 3 micrograms/mL.

The compound `COCCOc1ccc(-c2cn3nc(OCc4ccccc4)ccc3n2)cc1` [Compound 92] registered an LD99 of 0.438 micrograms/mL.

`COCCOc1cccc(-c2nc3ccc(Br)nn3c2C)c1` [Compound 93] registered an LD99 of 11 micrograms/mL.

Turning to `CCCOc1ccc2nc(-c3cccc(OCCOC)c3)c(C)n2n1` [Compound 94], the LD99 was 1.88 micrograms/mL.

`COCCOc1cccc(-c2nc3ccc(OCC4CC4)nn3c2C)c1` [Compound 95] had an LD99 of 0.875 micrograms/mL.

Regarding `CCCCSc1ccc2nc(-c3ccc(OCCOC)cc3)cn2n1` [Compound 99], the LD99 is 0.0938 micrograms/mL.

As for `CCOc1ccc2nc(-c3ccc(OCCOC)cc3)cn2n1` [Compound 100], the LD99 is 0.406 micrograms/mL.

Turning to `CCSc1ccc2nc(-c3ccc(OCCOC)cc3)cn2n1` [Compound 101], the LD99 was determined as 0.3123 micrograms/mL.

As to `COCCOc1cccc(-c2nc3ccc(SCC(C)C)nn3c2C)c1` [Compound 102], the LD99 came out at 12 micrograms/mL.

Consider `COCCOc1cccc(-c2nc3ccc(SC(C)C)nn3c2C)c1` [Compound 103], for which the LD99 amounted to 7 micrograms/mL.

With `COCCOc1cccc(-c2nc3ccc(OC(C)C)nn3c2C)c1` [Compound 104], the LD99 was 5 micrograms/mL.

On to `COCCOc1ccc(-c2cn3nc(SCC(C)C)ccc3n2)cc1OC` [Compound 105], for which the LD99 is 0.406 micrograms/mL.

`CCCCOc1ccc2nc(-c3ccc(OCCOC)c(OC)c3)cn2n1` [Compound 106] registered an LD99 of 0.313 micrograms/mL.

On to `COCCOc1ccc(-c2cn3nc(OC(C)C)ccc3n2)cc1OC` [Compound 107], for which the LD99 is 7 micrograms/mL.

On to `COCCOc1ccc(-c2cn3nc(SCC(C)C)ccc3n2)cc1` [Compound 108], for which the LD99 worked out at 0.313 micrograms/mL.

The compound `COCCOc1ccc(-c2cn3nc(SC(C)C)ccc3n2)cc1` [Compound 109] yielded an LD99 of 0.203 micrograms/mL.

The compound `CCCCOc1ccc2nc(-c3ccc(OCCOC)cc3)cn2n1` [Compound 111] returned an LD99 of 0.219 micrograms/mL.

In turn, `COCCOc1ccc(-c2cn3nc(OC(C)C)ccc3n2)cc1` [Compound 112] returned an LD99 of 1.63 micrograms/mL.

Regarding `CCCOc1ccc2nc(-c3ccc(OCCOC)c(OC)c3)c(I)n2n1` [Compound 113], the LD99 was 5 micrograms/mL.

The compound `COCCOc1ccc(-c2nc3ccc(SCC(C)C)nn3c2CN(C)C)cc1` [Compound 114] came in with an LD99 of 3.25 micrograms/mL.

`CCCCSc1ccc2nc(-c3ccc(OCCOCC)cc3)cn2n1` [Compound 115] returned an LD99 of 0.219 micrograms/mL.

For the compound `CCCOc1ccc2nc(-c3ccc(OCCOCC)cc3)cn2n1` [Compound 116], the LD99 turned out to be 0.109 micrograms/mL.

As to `CCOCCOc1ccc(-c2cn3nc(OCC4CC4)ccc3n2)cc1` [Compound 117], the LD99 turned out to be 0.0391 micrograms/mL.

`CCOc1ccc2nc(-c3ccc(OCCOC)c(OC)c3)cn2n1` [Compound 118] gave an LD99 of 1.25 micrograms/mL.

`CCCOc1nn2cc(-c3ccc(OCCOC)cc3)nc2c2ccccc12` [Compound 119] gave an LD99 of 0.344 micrograms/mL.

As to `CCCOc1nn2cc(-c3ccc(OCCO)cc3)nc2c2ccccc12` [Compound 120], the LD99 is given as 1.38 micrograms/mL.
